Results: patent US20230131899A1, “INHIBITORS OF MICROBIALLY INDUCED AMYLOID” (Axial Therapeutics, Inc., priority 2020, published 2023)
pIC50: −log10 of the molar value. Where two headings read alike, the source gives them in different places.

Test system: CsgA gene expression (csgBAC promoter-GFP reporter) in E. coli UTI89
Test: In vitro live cell fluorescent reporter assay of CsgA transcription (Reporter Assay)
Format: cell-based
Conditions: Escherichia coli; for IC50: read-out: Reporter Assay Abs IC50 (μM), median Abs IC50 in the CsgA reporter assay, N/A = maximum expression reduction is <50% of control
Description: In vitro live cell fluorescent reporter assay to determine effects of compounds on CsgA transcription. To assess the impact of compounds on CsgA gene expression, a live cell assay was performed using an engineered strain of E. coli UTI89 with a fluorescent CsgA gene expression reporter driven by the csgBAC promoter. In the reporter strain, a gene encoding Green Fluorescent Protein (GFP) was placed immediately downstream of the full intergenic region between csgDEF and csgBAC, containing the csgBAC promoter and other transcriptional regulatory elements, and inserted in single copy into the E. coli UTI89 chromosome, as described in Cegelski et. al., “Small-molecule inhibitors target Escherichia coli amyloid biogenesis and biofilm formation,” Nat. Chem. Bio., 25 Oct. 2009. With this construct, GFP expression in the reporter strain was under the same regulation as CsgA expression. The reporter strain was struck out on a YESCA agar plate (1 g/L yeast extract, 10 g/L casamino acids, 20 g/L Bacto Agar) and grown at about 27° C. for 2 days, or until single colonies were sufficiently large to pick. A single colony of the reporter strain was used to inoculate 5 mL of YESCA broth (1 g/L yeast extract, 10 g/L casamino acids), which was grown overnight at about 27° C. The inoculum was diluted 1:10 in YESCA broth and the optical density at 600 nm (OD600) was measured on a SpectraMax M2 or M5e (Molecular Devices, San Jose, Calif.) spectrophotometer in cuvettes. The culture was then further diluted to achieve a final OD600 of 0.003, which was confirmed by measurement of the OD600. Compounds were diluted in dimethyl sulfoxide (DMSO) and plated on black clear-bottomed tissue culture-treated 96-well plates with 1.5 μL/well for final test concentrations from 0.14-100 μM. All assay wells, including vehicle controls and positive controls for inhibition, included 1% DMSO final. Vehicle control wells consisted of DMSO and the reporter strain to assess the expression of the reporter strain in the assay in the absence of any compound. […] 148.5 μL culture at OD600 0.003 in YESCA broth was added to all wells for 150 μL final volume. Plates were incubated at 27° C. for 20 hours, then GFP fluorescence signal for each well was read on a Spectramax M2 or M5e plate reader with excitation at 485 nm, emission at 525 nm, and a cutoff at 515 nm. OD600 for each well was also measured on the Spectramax M2 or M5e plate reader. […] Background fluorescence was subtracted from all wells, then fluorescence signal for each well was normalized to the mean of the vehicle control wells. Normalized dose response curves were plotted for each compound, and compound inhibition of CsgA transcription was determined by assessing the curve-fit IC50, bottom, top, span (top-bottom), and Hill slope using GraphPad Prism software version 8.1.1 (GraphPad Software, San Diego, Calif.). An additional metric used to evaluate compounds was the concentration at which the curve reached 50% of the expression level of the vehicle control. This was written as a custom analysis in GraphPad Prism according to the formula X[50], or the X value at which Y=50, ie, the compound concentration at which fluorescence of the reporter strain was calculated to reach 50% of the vehicle control fluorescence. Separately from the fluorescence data, OD600 values were normalized to the mean of the vehicle control wells, and dose response curves were plotted for each compound. OD600 reduction of greater than 10% indicated compounds had some toxicity or negative impact on bacterial growth. […]

[1] = read-out: Reporter Assay Abs IC50 (activity range), median Abs IC50 in the CsgA reporter assay, class symbol
[2] = read-out: Reporter Assay Abs IC50, activity range, class symbol

SMILES	pIC50 [1]	IC50	pIC50 [2]
CN1CC(C(=O)O)n2c(c(-c3cccc(C(F)(F)F)c3)c(Cc3cccc4ccccc34)cc2=O)S1(=O)=O (racemic) [Compound 008, 2-methyl-8-(naphthalen-1-ylmethyl)-6-oxo-9-(3-(trifluoromethyl)phenyl)-3,4-dihydro-2H,6H-pyrido[1,2-e][1,2,5]thiadiazine-4-carboxylic acid 1,1-dioxide]	5.35 to 5.89	4.3 µM	–
CCCCN1CC(C(=O)O)n2c(c(-c3cccc(C(F)(F)F)c3)c(Cc3cccc4ccccc34)cc2=O)S1(=O)=O (racemic) [Compound 021, 2-butyl-8-(naphthalen-1-ylmethyl)-6-oxo-9-(3-(trifluoromethyl)phenyl)-3,4-dihydro-2H,6H-pyrido[1,2-e][1,2,5]thiadiazine-4-carboxylic acid 1,1-dioxide]	5.35 to 5.89	2.6 µM	–
O=C(O)c1c[nH]c2c(-c3cccc(C(F)(F)F)c3)c(Cc3cccc4ccccc34)cc(=O)n12 [Compound 110, 7-(naphthalen-1-ylmethyl)-5-oxo-8-(3-(trifluoromethyl)phenyl)-1,5-dihydroimidazo[1,2-a]pyridine-3-carboxylic acid]	< 5.00	13.7 µM	–
COc1ccc(Cc2c(-c3cccc(C(F)(F)F)c3)c3n(c(=O)c2Cl)C(C(=O)O)CN3Cc2ccccc2)c2ccccc12 (stereo not shown) [Compound 219, 1-benzyl-6-chloro-7-((4-methoxynaphthalen-1-yl)methyl)-5-oxo-8-(3-(trifluoromethyl)phenyl)-1,2,3,5-tetrahydroimidazo[1,2-a]pyridine-3-carboxylic acid]	–	0.8 µM	> 5.89
COc1ccc(Cc2cc(=O)n3c(c2-c2cccc(C(F)(F)F)c2)N(Cc2ccccc2)CC3C(=O)O)c2ccccc12 (stereo not shown) [Compound 220, 1-benzyl-7-((4-methoxynaphthalen-1-yl)methyl)-5-oxo-8-(3-(trifluoromethyl)phenyl)-1,2,3,5-tetrahydroimidazo[1,2-a]pyridine-3-carboxylic acid]	–	1.2 µM	> 5.89
O=C(O)C1CN(Cc2ccccc2)c2c(-c3cccc(C(F)(F)F)c3)c(Cc3cncc4ccccc34)cc(=O)n21 (stereo not shown) [Compound 221, 1-benzyl-7-(isoquinolin-4-ylmethyl)-5-oxo-8-(3-(trifluoromethyl)phenyl)-1,2,3,5-tetrahydroimidazo[1,2-a]pyridine-3-carboxylic acid]	–	6.7 µM	5.00 to 5.34
O=C(O)C1CN(Cc2ccccc2)c2c(-c3cccc(C(F)(F)F)c3)c(Cc3cccc4ncccc34)cc(=O)n21 (stereo not shown) [Compound 222, 1-benzyl-5-oxo-7-(quinolin-5-ylmethyl)-8-(3-(trifluoromethyl)phenyl)-1,2,3,5-tetrahydroimidazo[1,2-a]pyridine-3-carboxylic acid]	–	31.8 µM	< 5.00
O=C(O)C1CN(Cc2ccccc2)c2c(-c3cccc(C(F)(F)F)c3)c(Cc3cccc4cnccc34)cc(=O)n21 (stereo not shown) [Compound 223, 1-benzyl-7-(isoquinolin-5-ylmethyl)-5-oxo-8-(3-(trifluoromethyl)phenyl)-1,2,3,5-tetrahydroimidazo[1,2-a] pyridine-3-carboxylate]	–	21.7 µM	< 5.00
O=C(O)C1CN(Cc2ccccc2)c2c(-c3cccc(C(F)(F)F)c3)c(Cc3cccc4cccnc34)cc(=O)n21 (stereo not shown) [Compound 224, 1-benzyl-5-oxo-7-(quinolin-8-ylmethyl)-8-(3-(trifluoromethyl)phenyl)-1,2,3,5-tetrahydroimidazo[1,2-a]pyridine-3-carboxylic acid]	–	9.7 µM	5.00 to 5.34
O=C(O)C1CN(Cc2ccccc2)c2c(-c3cccc(C(F)(F)F)c3)c(Cc3ccc(Cl)c4ccccc34)c(Cl)c(=O)n21 (stereo not shown) [Compound 225, 1-benzyl-6-chloro-7-((4-chloronaphthalen-1-yl)methyl)-5-oxo-8-(3-(trifluoromethyl)phenyl)-1,2,3,5-tetrahydroimidazo[1,2-a]pyridine-3-carboxylic acid]	–	1.6 µM	5.35 to 5.89
CC(C)(C)c1cccc(Cc2cc(=O)n3c(c2-c2cccc(C(F)(F)F)c2)N(Cc2ccccc2)CC3C(=O)O)c1 (stereo not shown) [Compound 226, 1-benzyl-7-(3-(tert-butyl)benzyl)-5-oxo-8-(3-(trifluoromethyl)phenyl)-1,2,3,5-tetrahydroimidazo[1,2-a] pyridine-3-carboxylic acid]	–	2.7 µM	–
CC(C)(C)c1ccc(Cc2cc(=O)n3c(c2-c2cccc(C(F)(F)F)c2)N(Cc2ccccc2)CC3C(=O)O)cc1 (stereo not shown) [Compound 227, 1-benzyl-7-(4-(tert-butyl)benzyl)-5-oxo-8-(3-(trifluoromethyl)phenyl)-1,2,3,5-tetrahydroimidazo[1,2-a] pyridine-3-carboxylic acid]	–	1.8 µM	5.35 to 5.89
O=C(O)C1CN(Cc2ccccc2)c2c(-c3cccc(C(F)(F)F)c3)c(CN3CCCc4ccccc43)cc(=O)n21 (stereo not shown) [Compound 228, 1-benzyl-7-((3,4-dihydroquinolin-1 (2H)-yl)methyl)-5-oxo-8-(3-(trifluoromethyl)phenyl)-1,2,3,5-tetrahydroimidazo[1,2-a]pyridine-3-carboxylic acid]	–	3.9 µM	5.35 to 5.89
O=C(O)C1CN(Cc2ccccc2)c2c(-c3cccc(C(F)(F)F)c3)c(CN3CCC[C@@H](c4ccccc4)C3)c(Cl)c(=O)n21 (stereo partly drawn) [Compound 230, 1-benzyl-6-chloro-5-oxo-7-(((S)-3-phenylpiperidin-1-yl)methyl)-8-(3-(trifluoromethyl)phenyl)-1,2,3,5-tetrahydroimidazo[1,2-a]pyridine-3-carboxylic acid]	–	1.2 µM	> 5.89
O=C(O)C1CN(Cc2ccccc2)c2c(-c3cccc(C(F)(F)F)c3)c(CN3CCC[C@@H](c4ccccc4)C3)cc(=O)n21 (stereo partly drawn) [Compound 231, 1-benzyl-5-oxo-7-(((S)-3-phenylpiperidin-1-yl)methyl)-8-(3-(trifluoromethyl)phenyl)-1,2,3,5-tetrahydroimidazo[1,2-a]pyridine-3-carboxylic acid]	–	3.4 µM	5.35 to 5.89
O=C(O)C1CN(Cc2ccccc2)c2c(-c3cccc(C(F)(F)F)c3)c(Cc3ccccc3)cc(=O)n21 (stereo not shown) [Compound 235, 1,7-dibenzyl-5-oxo-8-(3-(trifluoromethyl)phenyl)-1,2,3,5-tetrahydroimidazo[1,2-a]pyridine-3-carboxylic acid]	–	2.7 µM	5.35 to 5.89
O=C(O)C1CN(Cc2ccccc2)c2c(-c3cccc(C(F)(F)F)c3)c(CCc3ccccc3)cc(=O)n21 (stereo not shown) [Compound 236, 1-benzyl-5-oxo-7-phenethyl-8-(3-(trifluoromethyl)phenyl)-1,2,3,5-tetrahydroimidazo[1,2-a]pyridine-3-carboxylic acid]	–	1.7 µM	5.35 to 5.89
O=C(O)C1CN(Cc2ccccc2)c2c(-c3cccc(C(F)(F)F)c3)c(CN3CCC[C@H](c4ccccc4)C3)c(Cl)c(=O)n21 (stereo partly drawn) [Compound 237, 1-benzyl-6-chloro-5-oxo-7-(((R)-3-phenylpiperidin-1-yl)methyl)-8-(3-(trifluoromethyl)phenyl)-1,2,3,5-tetrahydroimidazo[1,2-a]pyridine-3-carboxylic acid]	–	1.3 µM	5.35 to 5.89
O=C(O)C1CN(Cc2ccccc2)c2c(-c3cccc(C(F)(F)F)c3)c(CCc3ccccc3)c(Cl)c(=O)n21 (stereo not shown) [Compound 240, 1-benzyl-6-chloro-5-oxo-7-phenethyl-8-(3-(trifluoromethyl)phenyl)-1,2,3,5-tetrahydroimidazo[1,2-a]pyridine-3-carboxylic acid]	–	1.4 µM	5.35 to 5.89
